Test results as given in patent publication US20060128667A1, “Hydroxyphosphonates and phosphonophosphates as apolipoprotein e modulators” (priority 2002, published 2006).
Where two headings read alike, the source gives them in different places.

Tested on: apoE secretion by THP-1 cell line
Type: cell-based, human
Conditions: THP-1 cells, 3 days
From the text: The hydroxyphosphonates (Ia) and phosphonophosphates (Ib) of the invention can modulate (increase or decrease) the apoE production in plasma and in tissues. The activities of the compounds can be determined in an in vitro cell assay consisting in determining the effect of the test compound in modulating the secretion of apoE by an apoE secreting cell line (e.g., a monocyte-macrophage cell line such as the THP-1 cell line; a liver derived cell line such as the HepG2 cell line, an intestinal derived cell line such as the CaCo2 cell line or a brain derived cell line such as the astrocytoma CCF-STTG1 cell line).
THP-1 cell line (ATCC TIB-202) are cultured in RPMI 1640 (with 2 mM of L-glutamine and 2 g/l of glucose, Invitrogen) supplemented with 2 g/l of sodium hydrogen carbonate (Fluka), 10 U/ml of penicillin, 10 μg/ml of streptomycin (Penicillin-Streptomycin, Invitrogen), 20 μM of 2-mercaptoethanol (Fluka) and 10% FCS (Amimed). Cells are incubated at 37° C. and 5% CO2.
Cells are seeded in 24 well tissue culture plates (Falcon), 2×10^5 cells in 500 μl of culture medium per well or 6 well plates for RT-PCR purpose, 1×10^6 cells in 2.5 ml of medium. PMA (Phorbol 12-myristate 13-acetate, Alexis), (stock in DMSO (Fluka) at 1 mg/ml) and other compounds are diluted in ethanol and added to the cells at an ethanol final concentration not exceeding 1%. Same volume of ethanol is added in controls. Plates are incubated for 3 days at 37° C. and 5% CO2 to allow cell differentiation and apoE secretion.
Medium contained in the wells is harvested and centrifuged 5 min at 1200 rpm. Supernatants are store at −20° C. until apoE quantification. The cell pellets are resuspended in PBS and counted with a Z1 Coulter Counter. After a wash with PBS, adherent cells in the well bottoms are detached with trypsin-EDTA solution 10× (Invitrogen) diluted in PBS. The reaction is stopped with the addition of culture medium and the detached cells are counted.
ApoE was quantified by ELISA. 96 well plates (Costar) are coated with 5% of gelatine (from porcine skin, Fluka) in carbonate-bicarbonate buffer (Sigma) for 1 hour at 37° C. After removing the coating solution, 100 μl of THP-1 supernatant are added per well, diluted 5 times in buffer (PBS, 1% Top-Block (Juro), 0.1% Tween 20 (Fluka)). The incubation last 1 hour at 37° C., then the wells are washed 3 times with 200 μl of buffer. Plates are incubated for 1 hour at 37° C. with continuous stirring with the primary antibody (goat anti-human apoE IgG, Calbiochem) at a 10000-time dilution in buffer, 100 μl per well. After 3 washes, plates are incubated with the secondary antibody (rabbit anti-goat-IgG peroxidase conjugated, Sigma) diluted 5000 times, 100 μl per well, at 37° C. with shaking. Then the wells are washed 5 more times and the detection is achieved by adding 100 μl per well of o-phenylenediamine dihydrochloride (Sigma) and incubated for 15-20 minutes with shaking at room temperature. When the appropriated colour is reached, the reaction is stopped by adding 50 μl per well of 3 M sulfuric acid (Fluka) with shaking for 1 minute at room temperature. The absorbance is read at 492 nm versus 620 nm with a microplate photometer (Anthos Reader 2001).

Structure (SMILES): CCOP(=O)(OCC)OC(c1cccc(OCc2cccnc2)c1)P(=O)(OCC)OCC (stereo not drawn) [Dietbyl 1-(diethoxy-phosphinyloxy)-1-[3-(pyridin-3-yl-methoxy)-phenyl]-methylphosphonate]
- % ApoE Change (compound 25 μM, 1.25 nM PMA): 52%
- % ApoE Change (compound 25 μM, 2.5 nM PMA): 15%
- % ApoE Change (compound 50 μM, 1.25 nM PMA): 551%
- % ApoE Change (compound 50 μM, 2.5 nM PMA): 6%
- % ApoE Change (compound 100 μM, 1.25 nM PMA): 1351%
- % ApoE Change (compound 100 μM, 2.5 nM PMA): 98%

Structure (SMILES): CCOP(=O)(OCC)OC(c1ccc(-c2ccccc2)cc1)P(=O)(OCC)OCC (stereo not drawn) [Diethyl 1-(diethoxy-phosphinyloxy)-1-(biphenyl-4-yl)-methyiphosphonate]
- % ApoE Change (compound 25 μM, 1.25 nM PMA): 172%
- % ApoE Change (compound 25 μM, 2.5 nM PMA): 138%
- % ApoE Change (compound 50 μM, 1.25 nM PMA): 198%
- % ApoE Change (compound 50 μM, 2.5 nM PMA): 119%
- % ApoE Change (compound 100 μM, 1.25 nM PMA): 142%
- % ApoE Change (compound 100 μM, 2.5 nM PMA): 71%

Structure (SMILES): CCOP(=O)(OCC)OC(c1cccc(OCCCCCN2C(=O)c3ccccc3C2=O)c1)P(=O)(OCC)OCC (stereo not drawn) [Diethyl 1-(diethoxy-phosphinyloxy)-1-[3-(5-N-phthalimido-pentoxy)-phenyl]-methylphosphonate]
- % ApoE Change (compound 25 μM, 1.25 nM PMA): 3375%
- % ApoE Change (compound 25 μM, 2.5 nM PMA): 1196%
- % ApoE Change (compound 50 μM, 1.25 nM PMA): 1526%
- % ApoE Change (compound 50 μM, 2.5 nM PMA): 310%
- % ApoE Change (compound 100 μM, 1.25 nM PMA): −93%
- % ApoE Change (compound 100 μM, 2.5 nM PMA): −92%

Structure (SMILES): CCOP(=O)(OCC)OC(c1cc(OC)c2c(c1)OCO2)P(=O)(OCC)OCC (stereo not drawn) [Diethyl 1-(diethoxy-phosphinyloxy)-1-[4-(3-methoxy-4,5-methylenedioxy)-phenyl]-methylphosphonate]
- % ApoE Change (compound 25 μM, 1.25 nM PMA): −19%
- % ApoE Change (compound 25 μM, 2.5 nM PMA): 7%
- % ApoE Change (compound 50 μM, 1.25 nM PMA): 3%
- % ApoE Change (compound 50 μM, 2.5 nM PMA): −5%
- % ApoE Change (compound 100 μM, 1.25 nM PMA): 33%
- % ApoE Change (compound 100 μM, 2.5 nM PMA): 40%

Structure (SMILES): CCOP(=O)(OCC)OC(c1ccc(OCc2cccnc2)cc1)P(=O)(OCC)OCC (stereo not drawn) [Diethyl 1-(diethoxy-phosphinyloxy)-1-[4-(pyridin-3-yl-methoxy)-pheny]-methylphosphonate]
- % ApoE Change (compound 25 μM, 1.25 nM PMA): 95%
- % ApoE Change (compound 25 μM, 2.5 nM PMA): 179%
- % ApoE Change (compound 50 μM, 1.25 nM PMA): 189%
- % ApoE Change (compound 50 μM, 2.5 nM PMA): 245%
- % ApoE Change (compound 100 μM, 1.25 nM PMA): 535%
- % ApoE Change (compound 100 μM, 2.5 nM PMA): 434%

Structure (SMILES): CCOP(=O)(OCC)C(O)c1ccc(OCc2ccccn2)cc1 (stereo not drawn) [Diethyl 1-hydroxy-1-[4-(pyridin-2-yl-methoxy)-phenyl]-methlyphosphonate]
- % ApoE Change (compound 25 μM, 1.25 nM PMA): −9%
- % ApoE Change (compound 25 μM, 2.5 nM PMA): 0%
- % ApoE Change (compound 50 μM, 1.25 nM PMA): 24%
- % ApoE Change (compound 50 μM, 2.5 nM PMA): 3%
- % ApoE Change (compound 100 μM, 1.25 nM PMA): 76%
- % ApoE Change (compound 100 μM, 2.5 nM PMA): 100%

Structure (SMILES): CCOP(=O)(OCC)C(O)c1ccc(OCCCN2C(=O)c3ccccc3C2=O)cc1 (stereo not drawn) [Diethyl 1-hydroxy-1-{4-[3-N-phthalimido-propoxy]-phenyl}-methylphosphonate]
- % ApoE Change (compound 25 μM, 1.25 nM PMA): 543%
- % ApoE Change (compound 25 μM, 2.5 nM PMA): 304%
- % ApoE Change (compound 50 μM, 1.25 nM PMA): 961%
- % ApoE Change (compound 50 μM, 2.5 nM PMA): 396%
- % ApoE Change (compound 100 μM, 1.25 nM PMA): 1436%
- % ApoE Change (compound 100 μM, 2.5 nM PMA): 465%
